Experiments:
[1] = system: spasmodic seizures caused by pentetrazole; assay: antipentetrazole test (oral administration, mice); type: in vivo; details: Mus musculus, 30 minutes before 120 mg/kg pentetrazole i.p., dosage which protects 50% of the animals, Probit method
Method: As mentioned earlier, the compounds of formula A have valuable pharmacological properties. In particular, they display pronounced muscle relaxant, sedative-hypnotic, anticonvulsive and/or anxiolytic properties and have only a low toxicity.
(§1) In this animal experiment, the compound under investigation is administered orally to mice and 30 minutes later they are administered intraperitoneally 120 mg/kg of pentetrazole, which causes emprosthotonus and tonic stretchings of the fore and/or hind limbs in unprotected animals, 1-4 minutes after the injection. Ten (10) experimental animals are used per dosage of test substance. After counting the protected experimental animals, the ED50 is determined according to the known Probit method. The ED50 is that dosage which protects 50% of the experimental animals from the spasmodic seizures caused by pentetrazole. The results which have been obtained with representative members of the class of compound defined by formula A in the experiment described previously are compiled in the following Table. Moreover, the Table contains data concerning the acute toxicity (LD50) of some of these compounds in mg/kg in the case of single oral administration to mice.

[2] = acute toxicity, single oral administration to mice; details: mouse, in vivo, single oral administration (p.o.)
Method: as §1

Row | Structure (SMILES) | ED50 [1] [mg/kg] | LD50 [2] [mg/kg]
1 | COC1CN(C(=O)c2cc(-c3ccccc3)c(=O)n3c2-c2sccc2C(C)N3)C1 (racemic) [F, rac-1-[(4,5-dihydro-4-methyl-7-oxo-8-phenyl-7H-pyrido[1,2-b]thieno[2,3-d]pyridazin-10-yl)carbonyl]-3-methoxyazetidine] | 3.3 | 3000
2 | COC1CN(C(=O)c2cc(-c3ccccc3)c(=O)n3c2-c2cc(Cl)ccc2CN3)C1 [C, 1-[(10-chloro-6,7-dihydro-4-oxo-3-phenyl-4H-pyrido[2,1-a]phthalazin-1-yl)carbonyl]-3-methoxyazetidine] | 0.56 | 
3 | O=C(c1cc(-c2ccccc2)c(=O)n2c1-c1cc(Cl)ccc1CN2)N1CCOCC1 [Compound A, 4-[(10-chloro-6,7-dihydro-4-oxo-3-phenyl-4H-pyrido[2,1-a]phthalazin-1-yl)carbonyl]morpholine] | 3.1 | > 3000
4 | COC[C@H]1CCCN1C(=O)c1cc(-c2ccccc2)c(=O)n2c1-c1cc(Cl)ccc1CN2 [Compound B, (R)-1-[(10-chloro-6,7-dihydro-4-oxo-3-phenyl-4H-pyrido[2,1-a]phthalazin-1-yl)carbonyl]-2-(methoxymethyl)pyrrolidine] | 0.44 | > 3000
5 | CN(C)C(=O)c1cc(-c2ccccc2)c(=O)n2c1-c1cc(Cl)ccc1CN2 [D, 10-chloro-6,7-dihydro-N,N-dimethyl-4-oxo-3-phenyl-4H-pyrido[2,1-a]-phthalazine-1-carboxamide] | 0.23 | 
6 | CO[C@@H]1CCN(C(=O)c2cc(-c3ccccc3)c(=O)n3c2-c2sccc2CN3)C1 [E, (R)-1-[(4,5-dihydro-7-oxo-8-phenyl-7H-pyrido[1,2-b]thieno[2,3-d]pyridazin-10-yl)carbonyl]-3-methoxypyrrolidine] | 1.4 | 
7 | COC1CN(C(=O)c2cc(-c3ccccc3)c(=O)n3c2-c2sccc2CN3C)C1 [G, 1-[(4,5-dihydro-5-methyl-7-oxo-8-phenyl-7H-pyrido[1,2-b]thieno[2,3-d]pyridazin-10-yl)carbonyl]-3-methoxyazetidine] | 8.2 | > 5000
8 | CN(C)C(=O)c1cc(-c2ccccc2)c(=O)n2c1-c1sccc1CN2 [H, 4,5-dihydro-N,N-dimethyl-7-oxo-8-phenyl-7H-pyrido[1,2-b]thieno[2,3-d]pyridazine-10-carboxamide] | 0.29 | > 5000

From patent US4889854A, “Tricyclic pyridone derivatives” (Hoffman-La Roche Inc., priority 1987, dated 1989)
